This passage reports IC50 results from US20260347372A1, “SMALL MOLECULE INHIBITORS OF KRAS G12D MUTANT” (MERCK SHARP & DOHME LLC, priority 2023, published 2026).

The term IC50 denotes the concentration needed to halve the response being measured.

In test [1] the target is KRAS G12C (Homo sapiens, UniProt P01116, C118S/C51S/C80L/G12C). Put plainly: SOS-catalyzed nucleotide exchange assay, KRAS G12C (Procedure A). In kind it is biochemical. The following applies: GNE. In short, it runs like this:
(§1)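 Preformed TR-FRET complex of biotinylated KRAS (G12C carries C51S/C80L/C118S; others native sequence), Bodipy-GDP and Tb-streptavidin preincubated with compound 60 min at room temperature. Exchange started with human SOS plus 3 mM GTP for 60 min (G13D 30 min). Final RAS/SOS: G12C 3/40 nM; WT, G12D 1/40 nM; G13D 1.25/0 nM. 520/495 nm ratio normalised, fitted to four-parameter logistic.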

For test [2], the target named is HRAS (Homo sapiens, UniProt P01112). Put plainly: SOS-catalyzed nucleotide exchange assay, HRAS (Procedure A). It is filed as biochemical. Conditions: GNE. In short, it runs like this:
(§2)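 Compounds were preincubated 60 min with a biotinylated RAS·Bodipy-GDP/Tb-streptavidin TR-FRET complex, and exchange was started with human SOS plus 3 mM GTP at RT. RAS/SOS: G12C 3 nM/40 nM, WT and G12D 1 nM/40 nM, all 60 min; G13D 1.25 nM/0 nM, 30 min. 520/495 ratio normalized to DMSO and saturating inhibitor, four-parameter fit.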

The target in test [3] is NRAS (Homo sapiens, UniProt P01111). The experiment in a line: SOS-catalyzed nucleotide exchange assay, NRAS (Procedure A). In kind it is biochemical. The following applies: GNE. The method, boiled down:
as §2

Test [4] deals with KRAS G12V (Homo sapiens, UniProt P01116, G12V). The experiment in a line: SOS-catalyzed nucleotide exchange assay, KRAS G12V (Procedure A). It is filed as biochemical. The following applies: GNE. In short, it runs like this:
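Biotinylated KRAS G12V was loaded with Bodipy-GDP alongside Terbium-streptavidin to form a TR-FRET complex, which was preincubated with compounds for 60 minutes in 384-well plates. Human SOS protein and unlabeled GTP were then added for 90 minutes, giving final concentrations of 1.25 nM KRAS-G12V, 160 nM SOS and 3 mM GTP. The 520/495 nm emission ratio was read on an Envision.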

Test [5] concerns the target T1, AsPC-1 cells (Homo sapiens, UniProt P01116, G12D).
T1 construct: p-ERK/total ERK AlphaSureFire read-out
Put plainly: Cellular phospho-ERK assay, AsPC-1 cells (KRAS G12D). Conditions: 2 hours, read-out: AsPC1 pERK IC50. It is filed as cell-based. The method, boiled down: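 PANC08.13 or AsPC-1 cells (homozygous KRAS G12D) were seeded overnight, then treated for 2 h at 37 °C with a 10-point 1:3 titration from 30 μM. Lysates were assayed by AlphaLISA SureFire for p-ERK and total ERK. IC50 came from a 4-parameter fit of the p-ERK/total ERK ratio.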

Test [6] deals with T2, PANC08.13 cells (Homo sapiens, UniProt P01116, G12D).
T2 construct: p-ERK/total ERK AlphaSureFire read-out
T2 sequence (P01116 1-188 isoform P01116-2 G12D): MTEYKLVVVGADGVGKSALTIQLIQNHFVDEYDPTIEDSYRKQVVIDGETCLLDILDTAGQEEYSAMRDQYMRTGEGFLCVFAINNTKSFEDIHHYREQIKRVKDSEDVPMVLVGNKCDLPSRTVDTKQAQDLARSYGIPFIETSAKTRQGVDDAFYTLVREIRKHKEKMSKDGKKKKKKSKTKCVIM
The experiment in a line: Cellular phospho-ERK assay, PANC08.13 cells (KRAS G12D). It is filed as cell-based. The following applies: 2 hours, read-out: PANCO 813 pERK IC50. How it is done: Procedure for Cellular Phospho-ERK Assay in KRAS Wild Type and Mutant (G12D, G12V) Cell Lines
PANC08.13 cells (ATCC® CRL-2551™), containing homozygous KRAS-G12D activating mutation, were cultured in growth medium made of RPMI1640-GlutaMAX™-I (ThermoFisher Scientific 61870) containing 15% heat inactivated fetal bovine serum (ThermoFisher Scientific 10091148)). AsPC-1 cells (ATCC® CRL-1682™), containing homozygous KRAS-G12D activating mutation, were cultured in T150 flask in growth medium (RPMI medium 1640-GlutaMAX™-I (ThermoFisher Scientific 61870) containing 10% fetal bovine serum (ThermoFisher Scientific 10091148)).
Cells for the assay were harvested in growth medium after TrypLE (ThermoFisher scientific 12604021) digestion and were seeded in a 384-well collagen coated cell culture plate (Corning 356702) at a density of 10,000-15,000 cells/20 μL/well, and incubated at 37° C., 5% CO2 overnight. The compound (with 10 mM stock concentration) dose-response titrations were prepared [30 μM final ERK detection assay concentration and 1:3 dilutions, 10-point dose response] and appropriate amounts (270 nL) of test compounds were dispensed in a 384-well intermediate plate using an Echo 550 liquid handler. 30 μL/well of RPMI medium 1640-GlutaMAX™-I was added to the intermediate plate and the contents of the intermediate plate (10 μL/well) were then transferred to the 384-well collagen coated cell culture plate, which was incubated at 37° C., 5% CO2 for 2 hours. After removal of medium from the collagen coated cell culture plate, cells were lysed in lysis buffer from Alpha SureFire® Ultra™ Multiplex p-ERK and total ERK assay kit (PerkinElmer MPSU-PTERK) containing Halt™ Protease and Phosphatase inhibitor cocktail (ThermoFisher Scientific 78446) at room temperature with constant shaking at 300 rpm for 30 minutes. The cell lysates were then transferred to an OptiPlate-384 plate (PerkinElmer 6005620), and the phosphorylation of ERK (p-ERK) and total ERK levels were detected by Alpha SureFire® Ultra™ Multiplex p-EEK kit and total ERK assay kit (PerkinElmer MPSU-PTERK) following the manufacturer's protocol. Assay plates were read on a EnVision Multimode Plate Reader (PerkinElmer), and the ratio of p-ERK vs. total ERK in each well was used as the final readout. Dose response curves were analyzed using a 4-parameter logistic model to calculate IC50 values using Spotfire software.

The target of test [7] is KRAS G12D (Homo sapiens, UniProt P01116, G12D). The experiment in a line: SOS-catalyzed nucleotide exchange assay, KRAS G12D (Procedure A). Conditions: guanine nucleotide exchange (GNE). In kind it is biochemical. In short, it runs like this: as §1
Chain of KRAS G12D (P01116 with tags, fused parts or gaps isoform P01116-2 G12D): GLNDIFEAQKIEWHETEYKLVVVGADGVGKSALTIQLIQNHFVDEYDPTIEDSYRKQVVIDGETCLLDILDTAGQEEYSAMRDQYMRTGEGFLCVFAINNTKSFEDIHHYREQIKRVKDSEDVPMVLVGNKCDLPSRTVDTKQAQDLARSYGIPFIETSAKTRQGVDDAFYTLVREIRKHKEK
For test [8], the target named is KRAS G13D (Homo sapiens, UniProt P01116, G13D). Put plainly: SOS-catalyzed nucleotide exchange assay, KRAS G13D (Procedure A). Conditions: GNE. In kind it is biochemical. The method, boiled down:
as §1

Test [9] deals with KRAS WT (Homo sapiens, UniProt P01116). Put plainly: SOS-catalyzed nucleotide exchange assay, KRAS WT (Procedure A). It is filed as biochemical. The following applies: GNE. The method, boiled down:
as §1

Chain of NRAS (P01111 with tags, fused parts or gaps): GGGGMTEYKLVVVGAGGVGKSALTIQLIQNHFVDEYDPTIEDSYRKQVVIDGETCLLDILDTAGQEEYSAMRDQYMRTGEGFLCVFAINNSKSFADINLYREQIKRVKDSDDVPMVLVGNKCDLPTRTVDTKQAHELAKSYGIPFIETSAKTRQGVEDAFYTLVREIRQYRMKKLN
Chain of KRAS G13D (P01116 with tags, fused parts or gaps isoform P01116-2 G13D): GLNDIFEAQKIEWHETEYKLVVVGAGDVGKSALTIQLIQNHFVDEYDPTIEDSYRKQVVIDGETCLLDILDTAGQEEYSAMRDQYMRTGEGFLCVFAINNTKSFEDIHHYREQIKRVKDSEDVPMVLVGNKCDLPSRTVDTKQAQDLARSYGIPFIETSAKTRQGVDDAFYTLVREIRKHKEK
Chain of KRAS WT (P01116 with tags, fused parts or gaps isoform P01116-2): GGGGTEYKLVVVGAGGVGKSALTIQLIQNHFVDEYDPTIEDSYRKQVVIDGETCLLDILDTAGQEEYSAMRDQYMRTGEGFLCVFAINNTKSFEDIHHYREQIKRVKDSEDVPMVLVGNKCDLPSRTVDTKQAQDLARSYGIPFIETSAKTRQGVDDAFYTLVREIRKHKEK
Chain of KRAS G12C (P01116 with tags, fused parts or gaps isoform P01116-2 G12C/C51S/C80L/C118S): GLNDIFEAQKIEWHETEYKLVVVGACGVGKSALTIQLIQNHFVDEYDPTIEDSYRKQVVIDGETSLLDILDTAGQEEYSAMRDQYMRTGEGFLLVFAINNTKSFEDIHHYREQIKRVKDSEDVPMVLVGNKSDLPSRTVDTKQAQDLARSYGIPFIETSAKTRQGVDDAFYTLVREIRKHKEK
T1 sequence (P01116 1-188 isoform P01116-2 G12D): as the sequence (P01116 1-188 isoform P01116-2 G12D) above
Chain of KRAS G12V (P01116 with tags, fused parts or gaps isoform P01116-2 G12V): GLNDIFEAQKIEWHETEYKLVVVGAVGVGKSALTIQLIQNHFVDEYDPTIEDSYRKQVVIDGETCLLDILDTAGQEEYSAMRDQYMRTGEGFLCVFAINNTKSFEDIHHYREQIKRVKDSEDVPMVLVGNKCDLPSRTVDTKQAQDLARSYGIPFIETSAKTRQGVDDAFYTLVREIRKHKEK
Chain of HRAS (P01112 with tags, fused parts or gaps): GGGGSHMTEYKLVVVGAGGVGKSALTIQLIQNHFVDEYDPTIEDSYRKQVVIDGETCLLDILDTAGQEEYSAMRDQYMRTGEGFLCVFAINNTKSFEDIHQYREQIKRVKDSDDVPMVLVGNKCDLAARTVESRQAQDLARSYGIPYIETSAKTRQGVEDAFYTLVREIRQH

With `Cc1cc2[nH]ncc2c(-c2nccc3c4c(N5C[C@H]6CC[C@@H](C5)N6)nc(OC[C@@]56CCCN5C[C@H](F)C6)nc4n(C)c23)c1C(F)(F)F` (single isomer, unassigned) [Ex-1], the IC50 in test [1] was 0.652 µM; in test [2], more than 11.1 µM; in test [3], more than 11.1 µM; in test [4], 3.56 µM; in test [5], 0.455 µM; in test [6], 0.139 µM. For the same compound, the half-inhibitory concentration (IC50) in test [7] worked out at 0.0143 µM; in test [8], 1.64 µM; in test [9], 6.5 µM.

Consider `Cc1cc2[nH]nc(C#N)c2c(-c2nccc3c4c(N5C[C@H]6CC[C@@H](C5)N6)nc(OC[C@@]56CCCN5C[C@H](F)C6)nc4n(C)c23)c1C(F)(F)F` (single isomer, unassigned) [Ex-2], for which the IC50 is more than 11.1 µM in test [1]; more than 11.1 µM in test [2]; more than 11.1 µM in test [3]; more than 11.1 µM in [4]; 15.1 µM in test [5]; 1.63 µM in [6]. In addition, the IC50 in test [7] was 0.0436 µM; in test [8], 2.36 µM; in [9] it was more than 11.1 µM.

In the case of `Cc1cc2[nH]ncc2c(-c2nccc3c4c(N5C[C@H]6CC[C@@H](C5)N6)nc(OC[C@@]56CCCN5C[C@H](F)C6)nc4n(C)c23)c1C(F)F` (single isomer, unassigned) [Ex-3], the IC50 in [1] was 0.919 µM; in [2], more than 11.1 µM; in test [3] it was more than 11.1 µM; in test [4], 5.14 µM; in [5], 0.965 µM; in test [6], 0.244 µM. Moreover, the 50% inhibitory concentration (IC50) was 0.0975 µM in test [7], 3.32 µM in [8] and 9.31 µM in test [9].

Take `C#Cc1cccc2cccc(-c3nccc4c5c(N6C[C@H]7CC[C@@H](C6)N7)nc(OC[C@@]67CCCN6C[C@H](F)C7)nc5n(C)c34)c12` [Ex-9, 4-((1R,5S)-3,8-diazabicyclo[3.2.1]octan-3-yl)-8-(8-ethynylnaphthalen-1-yl)-2-(((2R,7aS)-2-fluoro-tetrahydro-1H-pyrrolizin-7a(5H)-yl)methoxy)-9-methyl-9H-py-rido[4′,3′:4,5]pyrro-lo[2,3-d]pyrimidine]: the IC50 was 1.55 µM in test [1]; more than 11.1 µM in [2]; more than 11.1 µM in [3]; 0.49 µM in test [5]; 0.315 µM in [6]; 0.0407 µM in [7]. Further, the IC50 in [8] is 0.451 µM.

As for `Cc1cc2[nH]ncc2c(-c2nccc3c4c(N5C[C@H]6CC[C@@H](C5)N6)nc(OC[C@]5(CO)CC5(F)F)nc4n(C)c23)c1C(F)(F)F` [Ex-53, ((1R)-1-(((4-((1R,5S)-3,8-diazabicyclo[3.2.1]octan-3-yl)-9-methyl-8-(6-methyl-5-(trifluoromethyl)-1H-indazol-4-yl)-9H-pyrido[4′,3′:4,5]pyrrolo[2,3-d]pyrimidin-2-yl)oxy)methyl)-2,2-difluorocyclopro-pyl)methanol], the IC50 is more than 11.1 µM in test [1]; more than 11.1 µM in [2]; more than 11.1 µM in test [3]; more than 11.1 µM in [4]; 3.97 µM in [6]; 0.583 µM in test [7]. Further, the half-maximal inhibitory concentration (IC50) in [8] is 4.88 µM; in [9], more than 11.1 µM.

As to `Cn1c2nc(OC[C@]3(CO)CC3(F)F)nc(N3C[C@H]4CC[C@@H](C3)N4)c2c2ccnc(-c3ccc(F)c4sc(N)c(C#N)c34)c21` [Ex-62, 4-(4-((1R,5S)-3,8-diazabicyclo[3.2.1]octan-3-yl)-2-(((R)-2,2-difluoro-1-(hydroxymethyl)cyclopro-pyl)methoxy)-9-methyl-9H-pyrido[4′,3′:4,5]pyrrolo[2,3-d]pyrimidin-8-yl)-2-amino-7-fluorobenzo[b]thiophene-3-carbonitrile], the IC50 in test [1] is 8.49 µM; in test [2] it was more than 11.1 µM; in [3], more than 11.1 µM; in test [4] it was more than 11.1 µM; in test [6] it was more than 10 µM; in test [7] it was 0.645 µM. The IC50 in [8] is 1.54 µM; in [9], more than 11.1 µM.

Regarding `Cn1c2nc(OC[C@]3(CO)CC3(F)F)nc(N3C[C@H]4CC[C@@H](C3)N4)c2c2ccnc(-c3c(F)cc(F)c4sc(N)c(C#N)c34)c21` [Ex-63, 4-(4-((1R,5S)-3,8-diazabicyclo[3.2.1]octan-3-yl)-2-(((R)-2,2-difluoro-1-(hydroxymethyl)cyclopro-pyl)methoxy)-9-methyl-9H-pyrido[4′,3′:4,5]pyrrolo[2,3-d]pyrimidin-8-yl)-2-amino-5,7-difluorobenzo[b]thiophene-3-carbonitrile], the IC50 in test [1] was more than 11.1 µM; in test [2], more than 11.1 µM; in test [3], more than 11.1 µM; in test [4], more than 11.1 µM; in [6], more than 10 µM; in [7], 0.0737 µM. Besides, the IC50 in test [8] and in test [9] was more than 11.1 µM in each case.

In the case of `Cc1cc2[nH]ncc2c(-c2nccc3c4c(N5CC[C@H]6NCC[C@H]65)nc(OC[C@@]56CCCN5C[C@H](F)C6)nc4n(C)c23)c1C(F)(F)F` [Ex-66, 2-(((2R,7aS)-2-fluorotetrahydro-1H-pyrrolizin-7a(5H)-yl)methoxy)-4-((3aR,6aR)-hexahydropyrrolo[3,2-b]pyrrol-1(2H)-yl)-9-methyl-8-(6-methyl-5-(trifluoromethyl)-1H-indazol-4-yl)-9H-pyrido[4′,3′:4,5]pyrrolo[2,3-d]pyrimidine], the IC50 is 1.69 µM in [1]; more than 11.1 µM in test [2]; more than 11.1 µM in test [3]; more than 11.1 µM in test [4]; 1.26 µM in test [6]; 0.202 µM in [7]. Also, the IC50 in [8] was determined as 1.5 µM; in test [9], 6.33 µM.

Regarding `Cc1cc2[nH]ncc2c(-c2nccc3c2oc2nc(OC[C@@]45CCCN4C[C@H](F)C5)nc(N4C[C@H]5CC[C@@H](C4)N5)c23)c1C(F)(F)F` [Ex-78, 4-((1R,5S)-3,8-diazabicyclo[3.2.1]octan-3-yl)-2-(((2R,7aS)-2-fluorotetrahydro-1H-pyrrolizin-7a(5H)-yl)methoxy)-8-(6-methyl-5-(trifluoromethyl)-1H-indazol-4-yl)pyrido[4′,3′:4,5]furo[2,3-d]pyrimidine], the IC50 in test [1] is more than 11.1 µM; in test [2], more than 11.1 µM; in [3] it was more than 11.1 µM; in [4], more than 11.1 µM; in test [6], 2.65 µM; in test [7], 0.728 µM. The IC50 in test [8] and in test [9] was more than 11.1 µM in each case.
